# Laboratory results published in patent US10093642B2, “Multitarget hedgehog pathway inhibitors and uses thereof” (UNIVERSITA' DEGLI STUDI DI SIENA, priority 2013, dated 2018).
# Columns and labels:
# SMO receptor = biological target: T1, SMO receptor (UniProt P56726); assay: Displacement assay with Bodipy-cyclopamine in HEK293 cells transfected with SMO; settings: BC 5 nM, 2 h at 37° C., read-out: IC50 of blocking Bodipy-cyclopamine (BC) binding to SMO
# T1 construct: fused on or other part: Possibly a C-terminal Myc3 tag, if the construct is Smo-Myc3 of Chen et al. 2002
# Protocol: (A) HEK293 cells were transiently transfected with pcDNA-SMO vector and incubated with Bodipy-cyclopamine (BC 5 nM) alone (control) or in the presence of increasing concentrations of KAAD (Cyclopamine-KAAD, Smoothened antagonist) or increasing concentrations of Glabrescione B, as indicated. Bodipy-cyclopamine binding (BC binding) (green) is visualized using fluorescence microscopy in a representative field. (B) The concentration-response curve for Glabrescione B was obtained by quantification of the Bodipy-cyclopamine fluorescence in three photographs for each coverslip. The values are expressed as a percentage of the fluorescence detected in control HEK293 cells incubated with Bodipy-cyclopamine alone. The data shown are the means of triplicates derived from a representative experiment of three. Error bars indicate SD (standard deviation). […]
# To investigate the binding properties of Glabrescione B to SMO receptor, a competition assay was carried out. In this experiment it was analyzed whether Glabrescione B could compete with Bodipy-cyclopamine (BC; 5 nM USBiological, cat. # B2527), a fluorescent derivative of cyclopamine, which is known to interact with the SMO receptor at the level of its heptahelical bundle. […] Cells were analyzed with a Carl Zeiss microscope (Axio Observer ZI). […] Bodipy-cyclopamine (green) and DAPI (blue) signals were analyzed in 3-4 representative fields for coverslips.
# Jurkat T leukemia cells = assay: Effect on Hh-independent Jurkat cells; format: cell-based
# GST = GST (Schistosoma japonicum, UniProt P08515); assay: NMR relaxation speed of Glabrescione B protons in presence of GST alone; format: binding; settings: 0.412 mM
# [1] = system: HepG2 hepatocellular carcinoma cells; assay: Effect on Hh-independent HepG2 cells; format: cell-based
# ASZ001 BCC allografts = assay: ASZ001 BCC allograft in NOD/SCID mice; format: in vivo; settings: 100 μmol/Kg, 18 days
# Text: FIG. 18. Glabrescione B inhibits Gli1-dependent BCC tumor growth in vivo. (ASZ001 BCC allografts). (A) Change of tumor volume during Glabrescione B (GlaB) or vehicle (CTR) treatment period (18 days). […] (C) qRT-PCR of Gli1 and Ptch1 mRNA. Shown is the mean±SD of tumor (n=6) for each treatment. *P<0.05 vs CTR.
# Therefore, to verify the Glabrescione B efficacy to inhibit Hh-dependent tumor cell growth in vivo, we turned to an allograft model of MB cells. Spontaneous Medulloblastomas from Ptch1^+/− mice were isolated, minced, pipetted to obtain a single-cell suspension and grafted s.c. at the posterior flank of female BALB/c nude mice (nu/nu) (Charles River Laboratories, Lecco, Italy). Tumors were grown until a median size of ˜100 mm^3. Animals were randomly divided into two groups (n=6) and treated with solvent only (2-hydroxypropyl-β-cyclodextrin:ethanol, 3:1) or Glabrescione B in solvent (75 μmol/Kg) for 18 days (2-hydroxypropyl-β-cyclodextrin was purchased from Sigma Aldrich, St. Louis, Mo., USA). 2×10^6 ASZ001 BCC cells were resuspended in an equal volume of 154CF medium and Matrigel (BD Biosciences, Heidelberg, Germany) and injected s.c. at the posterior flank of female NOD/SCID mice (Charles River Laboratories, Lecco, Italy), as previously described (Eberl et al, 2012). […] Tumor volumes change was calculated by the formula length×width×0.5×(length+width) (Lauth et al, 2007). […]
# human MB D283 cells = assay: Proliferation (BrdU), viability (MTS) and cell death (Trypan Blue) of MB D283 cells; format: cell-based; settings: 48 h
# Protocol: FIG. 11. (A) Human MB D283 cells were treated with different concentrations of Glabrescione B as indicated for 48 h. Inhibition of cell proliferation was measured as percentage of BrdU incorporation in comparison to DMSO (0.5%, vehicle) treated sample. (B) Human MB D283 cells were treated for 48 h with increasing concentrations of Glabrescione B as indicated. After 48 h, CellTiter 96® Aqueous One Solution Reagent was added to each well according to the manufacturer's instructions. After one hour in culture the cell viability (expressed in % viability) was determined by measuring the absorbance at 490 nm comparing treatment with DMSO (0.5%, vehicle) control.
# FIG. 12. […]
# A biological assay was performed in cerebellar neural progenitors cells obtained from 4-days-old mice, when they are actively proliferating under Sonic Hedgehog (Shh) stimulus. As expected, treatment of these cells with Shh increased the proliferation rate, as evaluated by BrdU-incorporation assay. […]
# More important, Glabrescione B was able to promote cell death of D283 MB cells, as reported by Trypan Blue count assay (FIG. 12). […] Cell death was measured by Trypan Blue (Sigma, cat. #T8154) exclusion counting at least 200 cells, in duplicate samples. All described assays were evaluated at 48 h after treatment.
# Ptch1+/− MB allografts = assay: Ptch1+/− MB allograft in nude mice; format: in vivo, BALB/c nude mice; settings: 18 days
# Text: FIG. 17. Glabrescione B inhibits Gli1-dependent MB tumor growth in vivo (Ptch1^+/− MB allografts). (A) Change of tumor volume during Glabrescione B (GlaB) or vehicle (CTR) treatment period (days 18). […] (C) qRT-PCR of Gli1 and Ptch1 mRNA expression levels normalized with endogenous control β2-microglobulin and HPRT.
# Therefore, to verify the Glabrescione B efficacy to inhibit Hh-dependent tumor cell growth in vivo, we turned to an allograft model of MB cells. Spontaneous Medulloblastomas from Ptch1^+/− mice were isolated, minced, pipetted to obtain a single-cell suspension and grafted s.c. at the posterior flank of female BALB/c nude mice (nu/nu) (Charles River Laboratories, Lecco, Italy). Tumors were grown until a median size of ˜100 mm^3. Animals were randomly divided into two groups (n=6) and treated with solvent only (2-hydroxypropyl-β-cyclodextrin:ethanol, 3:1) or Glabrescione B in solvent (75 μmol/Kg) for 18 days (2-hydroxypropyl-β-cyclodextrin was purchased from Sigma Aldrich, St. Louis, Mo., USA). 2×10^6 ASZ001 BCC cells were resuspended in an equal volume of 154CF medium and Matrigel (BD Biosciences, Heidelberg, Germany) and injected s.c. at the posterior flank of female NOD/SCID mice (Charles River Laboratories, Lecco, Italy), as previously described (Eberl et al, 2012). Tumors were grown until a median size of ˜200 mm^3. Animals were randomly divided into two groups (n=6) and treated with solvent only (2-hydroxypropyl-β-cyclodextrin:ethanol, 3:1) or Glabrescione B in solvent (100 μmol/Kg) for 18 days. Tumor volumes change was calculated by the formula length×width×0.5×(length+width) (Lauth et al, 2007).
# Nude mice were grafted with spontaneous primary MB from Ptch1^+/− mice and treated every second day with s.c. injections of Glabrescione B at a concentration of 75 μmol/Kg or solvent only (n=6 for each group).
# GST, sequence (P08515 whole entry): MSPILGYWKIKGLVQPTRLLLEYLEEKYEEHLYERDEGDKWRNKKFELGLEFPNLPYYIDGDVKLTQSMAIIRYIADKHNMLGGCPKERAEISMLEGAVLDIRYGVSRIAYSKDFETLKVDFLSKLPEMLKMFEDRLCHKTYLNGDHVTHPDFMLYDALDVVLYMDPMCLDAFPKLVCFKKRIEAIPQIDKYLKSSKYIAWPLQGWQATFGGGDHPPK
smiles,measurement,setting,value
"COc1cc(OC)c2c(=O)c(-c3ccc(OCC=C(C)C)c(OCC=C(C)C)c3)coc2c1 [Glabrescione B, 3-(3′,4′-bis(3-methylbut-2-enyloxy)phenyl)-5,7-dimethoxy-4H-chromen-4-one]",IC50,SMO receptor,1 µM
same,effect on Jurkat cells,Jurkat T leukemia cells,no effect
same,"Normalized relaxation speed ΔR/Rf, GlaB:GST 1:150",GST; proton 1,0.024
same,"Normalized relaxation speed ΔR/Rf, GlaB:GST 1:150",GST; proton 2′,0.058
same,"Normalized relaxation speed ΔR/Rf, GlaB:GST 1:150",GST; proton 3,0.100
same,"Normalized relaxation speed ΔR/Rf, GlaB:GST 1:150",GST; proton 4′,0
same,"Normalized relaxation speed ΔR/Rf, GlaB:GST 1:150",GST; proton 8,0
same,"Normalized relaxation speed ΔR/Rf, GlaB:GST 1:150",GST; proton 12,0.034
same,"Normalized relaxation speed ΔR/Rf, GlaB:GST 1:150",GST; proton 15,0.138
same,"Normalized relaxation speed ΔR/Rf, GlaB:GST 1:150",GST; proton 19,0
same,effect on HepG2 cells,[1],no effect
same,Gli1 mRNA levels in tumors,ASZ001 BCC allografts,significant reduction
same,tumor growth,ASZ001 BCC allografts,significant reduction of tumor growth
same,percentage of cell death (Trypan Blue),human MB D283 cells,"increase of the percentage of cell death, in a dose-dependent manner"
same,growth rate inhibition,"human MB D283 cells; dose range of 1-50 μM, MTS and BrdU incorporation",70-95%
same,tumor mass,Ptch1+/− MB allografts; 75 μmol/Kg s.c. every second day,significantly suppressed tumor mass
same,Gli1 mRNA levels in tumors,Ptch1+/− MB allografts; 75 μmol/Kg s.c.,reduction of Gli1 mRNA levels
same,Ki67 staining in tumors,Ptch1+/− MB allografts; 75 μmol/Kg s.c.,decreased Ki67 staining
